Experimental findings from patent US11970494B2, “6-heteroaryloxy benzimidazoles and azabenzimidazoles as JAK2 inhibitors” (Ajax Therapeutics, Inc., priority 2021, dated 2024) are described below.

Data set [1] is described as follows: Hepatocyte Stability Assay, rat hepatocytes. It counts as in vitro ADME. The settings on record: cryopreserved hepatocytes, read-out: Rat Heps CLint. As for the experimental part:
(§1) 10 mM stock solutions of test compound and positive control are prepared in DMSO. Stock solutions are diluted to 100 μM by combining 198 μL of 50% acetonitrile/50% water and 2 μL of 10 mM stock solution. Verapamil is used as positive control in the assay. Vials of cryopreserved hepatocytes are thawed in a 37° C. water bath with gently shaking. The contents are poured into the 50 mL thawing medium conical tube. Vials are centrifuged at 100 g for 10 minutes at room temperature. Thawing medium is aspirated and hepatocytes are re-suspended with serum-free incubation medium to yield ˜1.5×10^6 cells/mL. Cell viability and density are counted using a Trypan Blue exclusion, and then cells are diluted with serum-free incubation medium to a working cell density of 0.5×10^6 viable cells/mL. A portion of the hepatocytes at 0.5×10^6 viable cells/mL are boiled for 5 min prior to adding to the plate as negative control to eliminate the enzymatic activity so that little or no substrate turnover should be observed. Aliquots of 198 μL hepatocytes are dispensed into each well of a 96-well non-coated plate. The plate is placed in the incubator for approximately 10 minutes. Aliquots of 2 μL of the 100 μM test compound and 2 μL positive control are added into respective wells of a non-coated 96-well plate to start the reaction. The final concentration of test compound is 1 μM. This assay is performed in duplicate. The plate is incubated in the incubator for the designed time points. 25 μL of contents are transferred and mixed with 6 volumes (150 μL) of cold acetonitrile with internal standard (100 nM alprazolam, 200 nM labetalol, 200 nM caffeine and 200 nM diclofenac) to terminate the reaction at time points of 0, 15, 30, 60, 90 and 120 minutes. Samples are centrifuged for 25 minutes at 3,220 g and aliquots of 150 μL of the supernatants are used for LC-MS/MS analysis.

Data set [2] in a line: Hepatocyte Stability Assay, human hepatocytes. The settings on record: cryopreserved hepatocytes, read-out: Human Heps CLint. The format is in vitro ADME. As for the experimental part:
as §1

The subject of data set [3] is JAK2-mediated pSTAT5 signaling in constitutively active essential thrombocytopenia cells carrying the V617F mutation. Description: SET2-pSTAT5 Cellular Assay. It counts as cell-based. The settings on record: Homo sapiens. As for the experimental part:
This assay measures inhibition of JAK2-mediated pSTAT5 signaling in constitutively active essential thrombocytopenia cells carrying the V617F mutation. Cells are harvested from a flask into cell culture medium, and the number of cells is counted. The cells are diluted with culture medium and 100 μL of cell suspension (50000/well) is added into each well of a 96-well cell culture plate. A solution of test compound is added to the assay plate. The plates are covered with a lid and placed in a 37° C. 5% CO2 incubator for 4 hours. After 4 hours, the cells are spun, and the cell pellets are re-suspended with 100 μL cold PBS. Then, the cells are spun again at 4° C. and 4000 rpm for 5 min. PBS is aspirated, and 25 μL lysis buffer (with protease and phosphatase inhibitor cocktail) is added to each cell pellet. The cell lysate is shaken at 4° C. for 20 min to fully lyse the cells. The cell lysate is spun at 4° C. and 4000 rpm for 15 min, and then the supernatant is transferred into a new plate and stored at −80° C. Meso-scale discovery (MSD) is used to analyze plates as follows: a standard MSD plate is coated with capture antibody in PBS (40 μL/well) and is incubated at 4° C. overnight with shaking. The MSD plate is washed three times with 150 μL/well of 1×MSD Wash Buffer (Tris-buffered saline with 0.1% Tween® 20 detergent, TBST). The MSD plates are then blocked with 150 μL of blocking buffer (5% BSA in TBST) and shaken for 1 h at room temperature and 600 rpm. The MSD plate is washed three times with 150 μL/well of 1×MSD Wash Buffer (TBST). Sample lysates are then added to MSD plates (25 μL/well) and shaken for 1 h at room temperature and 600 rpm. The MSD plate is washed three times with 150 μL/well of 1×MSD Wash Buffer (TBST). Detection antibody (prepared in Antibody Detection buffer, 1% BSA in 1×TBST) is then added to the MSD plates, and they are shaken for 1 h at room temperature and 600 rpm. The MSD plate is washed three times with 150 μL/well of 1×MSD Wash Buffer (TBST). A secondary detection antibody (prepared in Antibody Detection buffer, 1% BSA in 1×TBST) is then added to the MSD plates, and they are shaken for 1 h at room temperature and 600 rpm. The MSD plate is washed three times with 150 μL/well of 1×MSD Wash Buffer (TBST). MSD reading buffer (1×) is added to the plates (150 μL/well), and they are diluted from 4× with water. The plates are imaged using an MSD imaging instrument according to the manufacturer's instructions.

The mark [4] stands for this setting: SET-2, SET2 cells, pSTAT5, 4 hours, MSD, read-out: IC50.

Where two headings read alike, the source gives them in different places. Where only a bound is given, the exact number is not on record here.

As for `COC(=O)Nc1cc(Oc2cnc3nc(Nc4cc(C(F)(F)F)cn(C)c4=O)n(C)c3c2C#N)ccn1` [Example I-3, Methyl (4-((7-cyano-1-methyl-2-((1-methyl-2-oxo-5-(trifluoromethyl)-1,2-dihydropyridin-3-yl)amino)-1H-imidazo[4,5-b]pyridin-6-yl)oxy)pyridin-2-yl)carbamate], the results for the CLint scaled at 1 μM in data set [1] and in data set [2] were less than 17 mL/min/kg and not above 6 mL/min/kg, respectively. For the same compound, the IC50 – broadly, the concentration needed to halve the response being measured – in data set [3] (SET-2, 4 h) is less than 125 nM.
On to `CN(C)C(=O)Nc1cc(Oc2cnc3nc(Nc4cc(C(F)(F)F)cn(C)c4=O)n(C)c3c2C#N)ccn1` [Example I-4, 3-(4-((7-cyano-1-methyl-2-((1-methyl-2-oxo-5-(trifluoromethyl)-1,2-dihydropyridin-3-yl)amino)-1H-imidazo[4,5-b]pyridin-6-yl)oxy)pyridin-2-yl)-1,1-dimethylurea], for which the CLint scaled at 1 μM in data set [1] was 17 to 35 mL/min/kg; in data set [2], not above 6 mL/min/kg. The 50% inhibitory concentration (IC50) in data set [3] (SET-2, 4 h) was less than 125 nM.
With `Cn1cc(C(F)(F)F)cc(Nc2nc3ncc(Oc4ccnc(NC(=O)N5CCC5)c4)c(C#N)c3n2C)c1=O` [Example I-7, N-(4-((7-cyano-1-methyl-2-((1-methyl-2-oxo-5-(trifluoromethyl)-1,2-dihydropyridin-3-yl)amino)-1H-imidazo[4,5-b]pyridin-6-yl)oxy)pyridin-2-yl)azetidine-1-carboxamide], the CLint scaled at 1 μM in data set [1] is 17 to 35 mL/min/kg; in data set [2] it was not above 6 mL/min/kg. Besides, the 50% inhibitory concentration (IC50) in data set [3] (setting [4]) was less than 125 nM.
Consider `CO[C@H]1CCN(C(=O)Nc2cc(Oc3cnc4nc(Nc5cc(C(F)(F)F)cn(C)c5=O)n(C)c4c3C#N)ccn2)C1` [Example I-14, (S)-N-(4-((7-cyano-1-methyl-2-((1-methyl-2-oxo-5-(trifluoromethyl)-1,2-dihydropyridin-3-yl)amino)-1H-imidazo[4,5-b]pyridin-6-yl)oxy)pyridin-2-yl)-3-methoxypyrrolidine-1-carboxamide], for which the CLint scaled at 1 μM was less than 17 mL/min/kg in data set [1] and not above 6 mL/min/kg in data set [2]. Further, the IC50 in data set [3] (setting [4]) was less than 125 nM.
`Cn1cc(C(F)(F)F)cc(Nc2nc3ncc(Oc4ccnc(NC(=O)OCCN5CCOCC5)c4)c(C#N)c3n2C)c1=O` [Example I-15, 2-Morpholinoethyl(4-((7-cyano-1-methyl-2-((1-methyl-2-oxo-5-(trifluoromethyl)-1,2-dihydropyridin-3-yl)amino)-1H-imidazo[4,5-b]pyridin-6-yl)oxy)pyridin-2-yl)carbamate]: the CLint scaled at 1 μM in data set [1] is less than 17 mL/min/kg; in data set [2], not above 6 mL/min/kg. In data set [3] (setting [4]), the half-maximal inhibitory concentration (IC50) was less than 125 nM.
Consider `Cn1cc(C(F)(F)F)cc(Nc2nc3ncc(Oc4ccnc(NC(=O)O[C@@H]5CCOC5)c4)c(C#N)c3n2C)c1=O` [Example I-18, (R)-Tetrahydrofuran-3-yl(4-((7-cyano-1-methyl-2-((1-methyl-2-oxo-5-(trifluoromethyl)-1,2-dihydropyridin-3-yl)amino)-1H-imidazo[4,5-b]pyridin-6-yl)oxy)pyridin-2-yl)carbamate], for which the CLint scaled at 1 μM in data set [1] lay in the range of 17 to 35 mL/min/kg; in data set [2], 6 to 12 mL/min/kg. Further, the half-maximal inhibitory concentration (IC50) in data set [3] (setting [4]) is less than 125 nM.
In the case of `COC1CN(C(=O)Nc2cc(Oc3cnc4nc(Nc5cc6n(n5)CCCC6(F)F)n(C)c4c3C#N)ccn2)C1` [Example I-26, N-(4-((7-cyano-2-((4,4-difluoro-4,5,6,7-tetrahydropyrazolo[1,5-a]pyridin-2-yl)amino)-1-methyl-1H-imidazo[4,5-b]pyridin-6-yl)oxy)pyridin-2-yl)-3-methoxyazetidine-1-carboxamide], the CLint scaled at 1 μM in data set [1] was less than 17 mL/min/kg; in data set [2] it was 6 to 12 mL/min/kg. In data set [3] (setting [4]), the IC50 lay within 200 to 1000 nM.
Take `Cn1c(Nc2cc3n(n2)CCOC3(C)C)nc2ncc(Oc3ccnc(NC(=O)O[C@@H]4CCOC4)c3)c(C#N)c21` [Example I-48, (R)-Tetrahydrofuran-3-yl(4-((7-cyano-2-((4,4-dimethyl-6,7-dihydro-4H-pyrazolo[5,1-c][1,4]oxazin-2-yl)amino)-1-methyl-1H-imidazo[4,5-b]pyridin-6-yl)oxy)pyridin-2-yl)carbamate]: the CLint scaled at 1 μM in data set [2] fell in the range of 6 to 12 mL/min/kg. For the same compound, the IC50 in data set [3] (setting [4]) lay within 1000 to 5000 nM.
In the case of `CN(C)C(=O)Nc1cc(Oc2cnc3nc(Nc4cc5n(n4)CCC54CCC4)n(C)c3c2C#N)ccn1` [Example I-56, 3-(4-((7-cyano-2-((5′,6′-dihydrospiro[cyclobutane-1,4′-pyrrolo[1,2-b]pyrazol]-2′-yl)amino)-1-methyl-1H-imidazo[4,5-b]pyridin-6-yl)oxy)pyridin-2-yl)-1,1-dimethylurea], the CLint scaled at 1 μM in data set [1] was 17 to 35 mL/min/kg; in data set [2], not above 6 mL/min/kg. The half-maximal inhibitory concentration (IC50) in data set [3] (SET-2, 4 h) was in the range of 125 to 200 nM.
As for `COC(=O)Nc1cc(Oc2cnc3nc(Nc4cc5n(n4)CCC54CCC4)n(C)c3c2C#N)ccn1` [Example I-57, methyl(4-((7-cyano-2-((5′,6′-dihydrospiro[cyclobutane-1,4′-pyrrolo[1,2-b]pyrazol]-2′-yl)amino)-1-methyl-1H-imidazo[4,5-b]pyridin-6-yl)oxy)pyridin-2-yl)carbamate], the CLint scaled at 1 μM in data set [1] lay in the range of 35 to 45 mL/min/kg; in data set [2] it was 6 to 12 mL/min/kg. This compound also gave a concentration for half-maximal inhibition (IC50) in data set [3] (SET-2, 4 h) of 125 to 200 nM.
Consider `CO[C@@H]1CCN(C(=O)Nc2cc(Oc3cnc4nc(Nc5cc6n(n5)CCC65CCC5)n(C)c4c3C#N)ccn2)C1` [Example I-60, (R)-N-(4-((7-cyano-2-((5′,6′-dihydrospiro[cyclobutane-1,4′-pyrrolo[1,2-b]pyrazol]-2′-yl)amino)-1-methyl-1H-imidazo[4,5-b]pyridin-6-yl)oxy)pyridin-2-yl)-3-methoxypyrrolidine-1-carboxamide], for which the values for the CLint scaled at 1 μM in data set [1] and in data set [2] were 17 to 35 mL/min/kg and 6 to 12 mL/min/kg, respectively. For the same compound, in data set [3] (setting [4]), the IC50 was less than 125 nM.
As for `COC1CN(C(=O)Nc2cc(Oc3cnc4nc(Nc5cc6n(n5)CCC65CCC5)n(C)c4c3C#N)ccn2)C1` [Example I-61, N-(4-((7-cyano-2-((5′,6′-dihydrospiro[cyclobutane-1,4′-pyrrolo[1,2-b]pyrazol]-2′-yl)amino)-1-methyl-1H-imidazo[4,5-b]pyridin-6-yl)oxy)pyridin-2-yl)-3-methoxyazetidine carboxamide], the CLint scaled at 1 μM was 35 to 45 mL/min/kg in data set [1] and not above 6 mL/min/kg in data set [2]. The IC50 in data set [3] (setting [4]) was less than 125 nM.
For the compound `COCCOC(=O)Nc1cc(Oc2cnc3nc(Nc4cc5n(n4)CCC54CCC4)n(C)c3c2C#N)ccn1` [Example I-62, 2-methoxyethyl(4-((7-cyano-2-((5′,6′-dihydrospiro[cyclobutane-1,4′-pyrrolo[1,2-b]pyrazol]-2′-yl)amino)-1-methyl-1H-imidazo[4,5-b]pyridin-6-yl)oxy)pyridin-2-yl)carbamate], the CLint scaled at 1 μM is 17 to 35 mL/min/kg in data set [1] and 6 to 12 mL/min/kg in data set [2]. Besides, the IC50 in data set [3] (setting [4]) was less than 125 nM.
